Data from paper PMC7554145 (Journal of medicinal chemistry, 2020).
≈ marks a conversion by molar mass, not a printed value. Entries after “also recorded” stand apart in the source; their conditions may differ. Read-outs that look alike come from different tables or passages of the source.

What was measured:
MraY/MurX = details: cited from earlier work
[1] = test system: cancer and healthy cell lines; assay: Cytotoxicity across cell-line panel; type: cell-based
HPNE = assay: MTT cytotoxicity assay, HPNE; type: cell-based; details: read-out: IC50 HPNE
PD002 [2] = assay: MTT cytotoxicity assay, PD002; type: cell-based, human; details: read-out: IC50 PD002
PD002 [3] = assay: Checkerboard synergy of CPPB with paclitaxel; type: cell-based, human; details: for CA and CB, concentration in combination: growth–no growth interface
DPAGT1 [4] = details: cited from earlier work
HCT-116 [5] = assay: MTT cytotoxicity assay, HCT-116; type: cell-based; details: read-out: IC50 HCT-116, 72h
DPAGT1 (Human) = DPAGT1 (Human) (Homo sapiens, UniProt Q9H3H5); assay: DPAGT1 assay; type: biochemical
AglH (M. jannaschii) = AglH (M. jannaschii) (Methanocaldococcus jannaschii, UniProt Q58513); assay: AglH assay; type: biochemical; details: read-out: IC50 AglH (M. jannaschii)
AsPC-1 = assay: MTT cytotoxicity assay, AsPC-1; type: cell-based, human; details: read-out: IC50 AsPC-1, 72h
KB = assay: MTT cytotoxicity assay, KB; type: cell-based, human; details: read-out: IC50 KB, 72h
PD002 [6] = assay: Scratch; type: cell-based, human; details: PD002, 24h, 0.2 μM; untreated 63%
SiHa [7] = assay: MTT cytotoxicity assay, SiHa; type: cell-based, human; details: read-out: IC50 SiHa, 72h
L1210 = assay: MTT cytotoxicity assay, L1210; type: cell-based, mouse; details: read-out: IC50 L1210, 72h
[8] = cited from earlier work
DLD-1 = assay: MTT cytotoxicity assay, DLD-1; type: cell-based; details: read-out: IC50 DLD-1, 72h
Capan-1 = assay: MTT cytotoxicity assay, Capan-1; type: cell-based, human; details: read-out: IC50 Capan-1, 72h
[9] = target: MraY (Hydrogenivirga sp.) (Hydrogenivirga sp. 128-5-R1-1, UniProt Z9Y2G8N0L0); assay: MraY assay; type: biochemical; details: read-out: IC50 MraY (Hydrogenivirga sp.)
PANC-1 = assay: MTT cytotoxicity assay, PANC-1; type: cell-based, human; details: read-out: IC50 PANC-1, 72h
DPAGT1 gene = assay: RT-qPCR of DPAGT1 gene expression in PD002; type: cell-based, human; details: 10 μM, 24h at 37 °C
WecA = details: read-out: IC50 WecA; ref [9],[10]; cited from earlier work
Vero = assay: MTT cytotoxicity assay, Vero; type: cell-based, Cercopithecus aethiops; details: read-out: IC50 Vero, 72h, normal kidney cell
WecA (E. coli) = WecA (E. coli) (Escherichia coli, UniProt P0AC78); assay: WecA assay; details: read-out: IC50 WecA (E. coli)
PD002 [10] = assay: Cell migration assay using transwell; type: cell-based, human; details: 0.1 μM, 18h; vs tunicamycin and gemcitabine at 0.1 μM
Snail = Snail expression; type: cell-based; details: 0.05 and 2.0 μM
PD002 [11] = assay: Kinetic proliferation assay; type: cell-based, human
DPAGT1 [12] = assay: DPAGT1 protein expression; type: cell-based
[13] = test system: Myocobacterium tuberculosis H37Rv, Mycobacterium avium 2285, Mycobacterium smegmatis (ATCC607); assay: Antimycobacterial activity; type: cell-based, Mycobacterium spp.
SiHa [14] = assay: Scratch; type: cell-based, human; details: scratch assay, 0.2 μM
HCT-116 [15] = assay: Scratch; type: cell-based; details: scratch assay
E-Cadherin = E-Cadherin expression; type: cell-based
[16] = test system: MraY, WecA, AglH, and DPAGT1; assay: Phosphotransferase panel; type: biochemical; details: at 50 μM concentration
[17] = test system: normal cells / cancer cells; details: selected solid cancer cell lines; ref [10]; cited from earlier work

DPAGT1 (Human), sequence (Q9H3H5 whole entry): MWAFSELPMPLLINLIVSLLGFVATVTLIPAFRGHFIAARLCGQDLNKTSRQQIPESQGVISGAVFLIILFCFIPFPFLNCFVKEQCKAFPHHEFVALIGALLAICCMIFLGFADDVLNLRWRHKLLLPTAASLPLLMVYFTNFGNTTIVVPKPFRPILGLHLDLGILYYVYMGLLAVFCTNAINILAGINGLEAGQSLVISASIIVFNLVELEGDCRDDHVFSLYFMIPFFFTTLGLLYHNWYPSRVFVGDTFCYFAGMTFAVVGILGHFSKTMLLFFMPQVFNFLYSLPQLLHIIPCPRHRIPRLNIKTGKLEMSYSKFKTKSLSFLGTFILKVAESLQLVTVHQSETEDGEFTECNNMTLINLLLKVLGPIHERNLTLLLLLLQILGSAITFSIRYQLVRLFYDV
MraY (Hydrogenivirga sp.), sequence (Z9Y2G8N0L0 7-365 limits assumed): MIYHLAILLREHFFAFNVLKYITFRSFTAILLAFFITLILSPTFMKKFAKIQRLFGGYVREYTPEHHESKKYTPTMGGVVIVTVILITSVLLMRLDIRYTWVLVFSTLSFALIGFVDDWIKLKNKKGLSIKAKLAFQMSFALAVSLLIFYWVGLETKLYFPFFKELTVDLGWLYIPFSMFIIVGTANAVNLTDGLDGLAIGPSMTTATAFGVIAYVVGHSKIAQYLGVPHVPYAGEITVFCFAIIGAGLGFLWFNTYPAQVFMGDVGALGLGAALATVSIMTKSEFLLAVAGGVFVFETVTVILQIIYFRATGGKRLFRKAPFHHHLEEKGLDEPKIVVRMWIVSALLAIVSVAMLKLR
AglH (M. jannaschii), sequence (Q58513 whole entry): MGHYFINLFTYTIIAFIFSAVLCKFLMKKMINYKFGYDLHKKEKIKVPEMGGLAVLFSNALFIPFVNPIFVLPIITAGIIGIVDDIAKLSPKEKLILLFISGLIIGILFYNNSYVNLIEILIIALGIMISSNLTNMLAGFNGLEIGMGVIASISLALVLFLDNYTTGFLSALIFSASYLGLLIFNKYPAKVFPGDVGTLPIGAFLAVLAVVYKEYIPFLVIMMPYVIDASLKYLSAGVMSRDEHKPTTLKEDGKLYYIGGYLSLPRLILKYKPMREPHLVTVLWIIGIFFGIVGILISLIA
WecA (E. coli), sequence (P0AC78 whole entry): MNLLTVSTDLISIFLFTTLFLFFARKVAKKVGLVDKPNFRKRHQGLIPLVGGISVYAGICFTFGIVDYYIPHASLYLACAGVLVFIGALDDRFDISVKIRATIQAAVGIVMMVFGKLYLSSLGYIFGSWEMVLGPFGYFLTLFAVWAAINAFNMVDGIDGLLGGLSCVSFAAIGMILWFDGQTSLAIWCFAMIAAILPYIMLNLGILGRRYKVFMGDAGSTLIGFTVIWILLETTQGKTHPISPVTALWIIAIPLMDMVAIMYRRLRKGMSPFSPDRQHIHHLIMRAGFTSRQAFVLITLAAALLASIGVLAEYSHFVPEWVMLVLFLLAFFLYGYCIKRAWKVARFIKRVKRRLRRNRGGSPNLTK

## CO[C@H]1[C@@H](OC)[C@H](n2ccc(=O)[nH]c2=O)O[C@@H]1[C@@H](O[C@H]1OC(C(=O)N[C@H]2CCCCNC2=O)=C[C@H](O)[C@@H]1O)C(N)=O [OM-CAP, O-Methyl capuramycin]
MraY/MurX; read-out: IC50 MraY, previously identified, ref [9]
  IC50: > 50000 nM
[1]; at 50 μM
  cytotoxicity against healthy cells (e.g., Vero and HPNE cells): does not show cytotoxicity
HPNE; HPNE, 72 h
  IC50: > 50000 nM

## CC(=O)O[C@H]1C(=O)[C@@]2(C)[C@H]([C@H](OC(=O)c3ccccc3)[C@]3(O)C[C@H](OC(=O)[C@H](O)[C@@H](NC(=O)c4ccccc4)c4ccccc4)C(C)=C1C3(C)C)[C@]1(OC(C)=O)CO[C@@H]1C[C@@H]2O [Paclitaxel, reference compound]
PD002 [2]; Homo sapiens, PD002, 72 h
  IC50: 1250 nM
PD002 [3]; Table 3 entry 1
  CA and CB, concentration in combination: 0.63 µM
PD002 [3]; Table 3 entry 2
  CA and CB, concentration in combination: 0.16 µM
PD002 [3]; Table 3 entry 3
  CA and CB, concentration in combination: 0.0049 µM
PD002 [3]; Table 3 entry 4
  CA and CB, concentration in combination: 0.020 µM
PD002 [3]; Table 3 entry 6
  CA and CB, concentration in combination: 0.020 µM

## Tunicamycin
DPAGT1 [4]; read-out: IC50 DPAGT1, ref [9],[10]
  IC50: 1500 nM
HCT-116 [5]
  IC50: 920 nM
DPAGT1 (Human); read-out: IC50 DPAGT1 (Human)
  IC50: 1500 nM
PD002 [2]; MTT assay, 72h
  IC50: 1500 nM
AglH (M. jannaschii)
  IC50: 13200 nM
MraY/MurX; read-out: IC50 MraY/MurX, ref [9],[10]
  IC50: 2900 nM
AsPC-1
  IC50: 450 nM
KB
  IC50: 2500 nM
PD002 [6]
  wound-healing rate: 35%
SiHa [7]
  IC50: 920 nM
L1210
  IC50: 1700 nM
[8]; mice, IP, ref [18],[19]
  LD50: 2.0 mg/kg
  LD100: 3.5 mg/kg
[8]; mouse, ref [10],[18]
  LD50: 2.0 mg/kg
DLD-1
  IC50: 1250 nM
Capan-1
  IC50: 1500 nM
[9]
  IC50: 2900 nM
PANC-1
  IC50: 1500 nM
DPAGT1 gene
  PD002 killed: 100%
WecA
  IC50: 150 nM
HPNE; MTT assay, 72h, normal pancreatic ductal cell
  IC50: 7500 nM
Vero
  IC50: 780 nM
WecA (E. coli)
  IC50: 150 nM

## CO[C@H]1[C@@H](O)[C@H](n2ccc(=O)[nH]c2=O)O[C@@H]1[C@@H](O[C@H]1OC(C(=O)NCc2ccc(N3CCC(Oc4ccc(OC(F)(F)F)cc4)CC3)cc2)=C[C@H](O)[C@@H]1O)C(N)=O [CPPB, (2S,3S,4S)-2-((1R)-2-Amino-1-((2S,5R)-5-(2,4-dioxo-3,4-dihydropyrimidin-1(2H)-yl)-4-hydroxy-3-methoxytetrahydrofuran-2-yl)-2-oxoethoxy)-3,4-dihydroxy-N-(4-(4-(4-(trifluoromethoxy)phenoxy)piperidin-1-yl)benzyl)-3,4-dihydro-2H-pyran-6-carboxamide]
DPAGT1 (Human)
  DPAGT1 inhibitory activity relative to tunicamycin: ~ 7.5 times
PD002 [6]
  wound-healing rate: approximately 20%
PD002 [10]
  inhibition of cell migration of PD002 (Boyden chamber): inhibited on a higher level
[1]; MTT assays, 20 μM
  viability of all pancreatic cancers tested: remained viable
[1]; at 10 μM or higher concentrations
  cytotoxicity against a series of cancer and healthy cell lines: not cytotoxic
[1]; at 50 μM
  antiproliferative activity against L1210, HPNE, and Vero: did not show antiproliferative activity
[1]; read-out: IC50 growth inhibition of solid cancer cell lines (span)
  IC50: 15000 to 45000 nM
Snail
  Snail expression level in HCT-116: not noticeably changed
PD002 [11]; CPPB 50 μM, same as time 0h, control (PBS) ca. 70%
  phase area confluent of PD002 culture after 72h: 10–13%
PD002 [11]; PD002, CPPB 0.2–20 μM
  cell proliferation inhibited at time 72h: ca. 20%
PD002 [11]; demonstrated by IncuCyte live cell analyses and immunofluorescence assays
  cell permeability: cell-permeable
DPAGT1 [12]; 0.2 μM
  DPAGT1 expression in pancreatic cancer cell lines: apparently inhibited
DPAGT1 [12]; Western blot, CPPB 0.1–20 μM
  DPAGT1 expression levels of HCT-116 remaining: 20–90%
[13]
  MIC: 6.25 to 12.5 µg/mL (≈ 7.74 to 15.5 µM)
SiHa [14]
  inhibition of migration of SiHa: strongly inhibited migration
HCT-116 [15]
  inhibition of cell migration of HCT-116: not inhibited; also recorded: did not inhibit migration
PD002 [3]; Table 3 entry 1
  CA and CB, concentration in combination: 0.10 µM
PD002 [3]; Table 3 entry 2
  CA and CB, concentration in combination: 0.10 µM
PD002 [3]; Table 3 entry 3
  CA and CB, concentration in combination: 0.20 µM
PD002 [3]; Table 3 entry 4
  CA and CB, concentration in combination: 0.20 µM
PD002 [3]; Table 3 entry 5
  CA and CB, concentration in combination: 0.20 µM
PD002 [3]; Table 3 entry 6
  CA and CB, concentration in combination: 2.0 µM
PD002 [3]; Table 3 entry 7
  CA and CB, concentration in combination: 2.0 µM
PD002 [3]; Table 3 entry 8
  CA and CB, concentration in combination: 2.0 µM
PD002 [3]; checkerboard
  synergistic effect with paclitaxel against PD002: strong synergistic effects
HPNE; HPNE, 72 h
  IC50: > 50000 nM
E-Cadherin; Western blot, 0–2.0 μM
  E-Cadherin expression level of PANC-1: the same expression level
E-Cadherin; immunofluorescence, 0.05–2.0 μM
  E-Cadherin expression levels of PD002, PANC-1, and HCT-116: not changed significantly

## CO[C@H]1[C@@H](O)[C@H](n2ccc(=O)[nH]c2=O)O[C@@H]1[C@@H](O[C@H]1OC(C(=O)N[C@H]2CCCCNC2=O)=C[C@H](O)[C@@H]1O)C(N)=O [CAP, Capuramycin, reference compound]
HPNE; HPNE, 72 h
  IC50: > 50000 nM

## CO[C@H]1[C@@H](O)[C@H](n2ccc(=O)[nH]c2=O)O[C@@H]1[C@@H](O[C@H]1OC(CNCc2ccc(N3CCC(Oc4ccc(OC(F)(F)F)cc4)CC3)cc2)=C[C@H](O)[C@@H]1O)C(N)=O [CPPA, (2R)-2-(((2S,3S,4S)-3,4-Dihydroxy-6-(((4-(4-(4-(trifluoromethoxy)phenoxy)piperidin-1-yl)benzyl)amino)methyl)-3,4-dihydro-2H-pyran-2-yl)oxy)-2-((2S,5R)-5-(2,4-dioxo-3,4-dihydropyrimidin-1(2H)-yl)-4-hydroxy-3-methoxytetrahydrofuran-2-yl)acetamide]
[16]
  inhibition of all phosphotransferases tested in Table 1: did not inhibit

## CO[C@@H]1[C@H](O)[C@@H]([C@@H](O[C@H]2OC(CNCc3ccc(N4CCC(Oc5ccc(OC(F)(F)F)cc5)CC4)cc3)=C[C@H](O)[C@@H]2O)C(N)=O)O[C@H]1n1ccc(=O)[nH]c1=O [I-CPPA, (2R)-2-(((2S,3S,4S)-3,4-Dihydroxy-6-(((4-(4-(4-(trifluoromethoxy)phenoxy)piperidin-1-yl)benzyl)amino)methyl)-3,4-dihydro-2H-pyran-2-yl)oxy)-2-((2S,5R)-5-(2,4-dioxo-3,4-dihydropyrimidin-1(2H)-yl)-3-hydroxy-4-methoxytetrahydrofuran-2-yl)acetamide]
[16]
  inhibition of all phosphotransferases tested in Table 1: did not inhibit

## NC[C@H]1O[C@@H](O[C@H]([C@H]2O[C@@H](n3ccc(=O)[nH]c3=O)[C@H](O)[C@@H]2O)[C@H](NCCCC(=O)NCc2ccc(N3CCC(Oc4ccc(OC(F)(F)F)cc4)CC3)cc2)C(N)=O)[C@H](O)[C@@H]1O [APPB, Aminouridyl phenoxylpiperidinylbenzylbutanamide]
DPAGT1 [4]; ref [10]
  DPAGT1 inhibitory activity relative to tunicamycin: greater than 30 times
[8]; mouse, ref [10],[18]
  LD50: > 20 mg/kg
[17]
  selective cytotoxicity (IC50 normal cells / cancer cells): > 35

## CO[C@@H]1[C@H](O)[C@@H]([C@@H](O[C@H]2OC(C(=O)NCc3ccc(N4CCC(Oc5ccc(OC(F)(F)F)cc5)CC4)cc3)=C[C@H](O)[C@@H]2O)C(N)=O)O[C@H]1n1ccc(=O)[nH]c1=O
[1]; at 50 μM
  antiproliferative activity against L1210, HPNE, and Vero: did not show antiproliferative activity
[13]; at 50 μg/mL
  growth inhibitory activity against Mycobacterium spp.: did not show growth inhibitory activity
